Key:
[1] = system: P. falciparum female gametocytes; experiment: P. falciparum Dual Gamete Formation Assay (PfDGFA), female readout (Pfs25-positive female gametes); format: cell-based, Plasmodium falciparum NF54; details: for Average inhibition female (%): average of replicates; for % inhibition female (individual replicates) R1: replicate R1; for % inhibition female (individual replicates) R3: replicate R3; for % inhibition female (individual replicates) R4: replicate R4
In short: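 NF54 mature gametocytes (d14), cpd 24 h 37°C hypoxic gas; trigger: xanthurenic acid ookinete medium + Cy3 anti-Pfs25, 4°C 4 min → 28°C 4 min. Male: exflagellation centres, brightfield x6. Female: Pfs25+ gametes, fluorescence, +24 h 28°C dark.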

[2] = system: P. falciparum male gametocytes; experiment: P. falciparum Dual Gamete Formation Assay (PfDGFA), male readout (exflagellation); format: cell-based, Plasmodium falciparum NF54; details: for Average inhibition male (%): average of replicates; for % inhibition male (individual replicates) R1: replicate R1; for % inhibition male (individual replicates) R3: replicate R3; for % inhibition male (individual replicates) R4: replicate R4; for Activity: hit = >50% inhibition in male or female readout in at least 3 replicates, 0 = no class assigned
Procedure: P. falciparum NF54 (originally isolated from an imported malaria case in the Netherlands in the 1980s; BEI Resources, cat. No. MRA-1000) strain asexual parasites were maintained between 0.3–5% parasitaemia by regular passage in complete culture medium (RPMI supplemented with 25 mM HEPES, 50 μg ml^−1 hypoxanthine, 4.8 g l^−1 NaHCO3, 2mM L-glutamine, 5% pooled type AB serum, 0.5% Albumax II (Gibco)) at 4% haematocrit in washed whole blood (National Blood and Transfusion Service or Centro de Transfusiones de la Comunidad de Madrid CTCM) under a 1% O2/3% CO2/96% N2 environment. Gametocytes were induced by seeding culture flasks at 2% parasitaemia/4% haematocrit and subjecting them to daily medium changes for 14 days whilst maintaining a temperature of 37°C at all times. On Day 14, the maturity of gametocytes was assessed by quantifying male gametogenesis (exflagellation). A 20 μl sample of gametocyte culture was mixed with equal volume of ookinete medium (complete culture medium supplemented with 0.1 μM xanthurenic acid) at room temperature and transferred to a haemocytometer. After 20 min at room temperature, exflagellation was accurately quantified as described in Delves et al. 2016 [17].
The Pf DGFA was performed as described in Delves et al. 2016 [17]. […] Plates were then incubated for 24 h at 37°C in a humidified box under a 1% O2/3% CO2/96% N2 gas mix. Gametogenesis was triggered by addition of 10 μl per well of ookinete medium + 0.27 μg ml^-1 Cy3-labelled anti-Pfs25 antibody. Plates were incubated on a metal block at 4°C for 4 min to ensure even cooling, then 28°C for a further 4 min. Exflagellation was recorded by capturing 10 frames over 1 s under brightfield illumination using a x4 objective with a 1.5x zoom (effectively x6) attached to an automated Nikon Ti fluorescence microscope. After recording exflagellation, plates were incubated for a further 24 h in the dark at 28°C to ensure maximal expression of Pfs25 by female gametes. The plates were then returned to the microscope and female gametes imaged at x6 using fluorescence microscopy.
Exflagellation centres and female gametes were quantified using custom image analysis pipelines developed within ICY Bioimage Analysis (https://icy.bioimageanalysis.org/).

[3] = 2µM, 24h preincubation with gametocytes prior to induction of gametogenesis
[4] = 2µM, 24h preincubation, hits selected on >50% inhibition in the female readout across replicates
[5] = 2µM, 24h preincubation, hits selected on >50% inhibition in the male readout across replicates
[6] = PfDGFA at 2µM, 24h preincubation
[7] = PfDGFA at 2µM, 24h preincubation with gametocytes
[8] = number of replicates with >50% inhibition in the female readout, 2µM
[9] = number of replicates with >50% inhibition in the male readout, 2µM
[10] = 2µM, 24h preincubation, number of replicates with >50% inhibition in the female readout
[11] = 2µM, 24h preincubation, number of replicates with >50% inhibition in the male readout
[12] = PfDGFA at 2µM, 24h preincubation with gametocytes prior to induction of gametogenesis

| Structure (SMILES) | Average inhibition female (%) [1, 3] | % inhibition female (individual replicates) R1 [1, 3] | % inhibition female (individual replicates) R3 [1, 3] | % inhibition female (individual replicates) R4 [1, 3] | HitlevelF [1, 4] | Average inhibition male (%) [2, 3] | % inhibition male (individual replicates) R1 [2, 3] | % inhibition male (individual replicates) R3 [2, 3] | % inhibition male (individual replicates) R4 [2, 3] | HitlevelM [2, 5] | Activity [2, 6] | HitlevelF [1, 10] | HitlevelM [2, 11] | also measured |
| --- | --- | --- | --- | --- | --- | --- | --- | --- | --- | --- | --- | --- | --- | --- |
| CN1CCC(NCc2ccc(-c3cccc(S(=O)(=O)NCc4ccccc4)c3)cc2)CC1.O=C(O)C(F)(F)F [TCMDC-132238] | 15.2% | 18.5% | -4.9% | 24.5% | 0 | 25.7% | 17.7% | -3.8% | 50.9% | 1 | 0 |  |  |  |
| O=C(O)C(F)(F)F.O=S(=O)(NCCN1CCCC1)c1cccc(-c2ccc(CNC3Cc4ccccc4C3)cc2)c1 [TCMDC-132241] | 16.9% | 23.8% | 3.4% | 2.0% | 0 | -1.0% | 15.7% | -7.3% | -2.5% | 0 | 0 |  |  |  |
| COc1ccc(CNC2CCN(C)CC2)cc1-c1ccc(S(=O)(=O)NCc2ccccc2)cc1.O=C(O)C(F)(F)F [TCMDC-132244] |  |  |  |  |  |  |  |  |  |  |  |  |  | Average inhibition female (%) [1, 7]: 25.2%; % inhibition female (individual replicates) R1 [1, 7]: 21.6%; % inhibition female (individual replicates) R3 [1, 7]: 8.8%; % inhibition female (individual replicates) R4 [1, 7]: 45.4%; HitlevelF [1, 8]: 0; Average inhibition male (%) [2, 7]: 63.1%; % inhibition male (individual replicates) R1 [2, 7]: 62.4%; % inhibition male (individual replicates) R3 [2, 7]: 51.6%; % inhibition male (individual replicates) R4 [2, 7]: 78.9%; HitlevelM [2, 9]: 4 |
| COc1ccc(CNC2CCN(C)CC2)cc1-c1ccc(S(=O)(=O)NC2CCC2)cc1.O=C(O)C(F)(F)F [TCMDC-132245] | 10.6% | 7.8% | -17.0% | 30.9% |  | 51.4% | 59.0% | 27.2% | 60.2% |  |  | 0 | 3 |  |
| COc1ccc(CNC2Cc3ccccc3C2)cc1-c1ccc(OC)c(S(=O)(=O)NCCN2CCCC2)c1.O=C(O)C(F)(F)F [TCMDC-132251] | 36.3% | 26.7% | 26.1% | 31.1% |  | -9.5% | -12.6% | -24.0% | 8.2% |  |  | 1 | 0 |  |
| COc1ccc(CNC2CCN(C)CC2)cc1-c1ccc(S(=O)(=O)NC2CCC2)s1.O=C(O)C(F)(F)F [TCMDC-132254] | 16.7% | 16.7% | 22.1% | 14.8% | 0 | 56.3% | 57.2% |  | 49.8% | 2 | 0 |  |  |  |
| COc1ccc(CNC2CCN(C)CC2)cc1-c1cccc(S(=O)(=O)NCc2ccccc2)c1.O=C(O)C(F)(F)F [TCMDC-132267] |  |  |  |  |  |  |  |  |  |  |  |  |  | Average inhibition female (%) [1, 7]: 16.9%; % inhibition female (individual replicates) R1 [1, 7]: 27.9%; % inhibition female (individual replicates) R3 [1, 7]: 4.5%; % inhibition female (individual replicates) R4 [1, 7]: 10.9%; HitlevelF [1, 8]: 0; Average inhibition male (%) [2, 7]: 67.3%; % inhibition male (individual replicates) R1 [2, 7]: 62.4%; % inhibition male (individual replicates) R3 [2, 7]: 55.8%; % inhibition male (individual replicates) R4 [2, 7]: 79.6%; HitlevelM [2, 9]: 4 |
| COc1ccc(CNC2Cc3ccccc3C2)cc1-c1cccc(S(=O)(=O)NCCN2CCCC2)c1.O=C(O)C(F)(F)F [TCMDC-132269] | 23.4% | 14.9% | -7.5% | 55.1% |  | 7.0% | 7.1% | -13.3% | 18.2% |  |  | 1 | 0 |  |
| COc1ccc(CNCc2ccc(F)cc2)cc1-c1ccc(S(=O)(=O)NCCN2CCCC2)cc1.O=C(O)C(F)(F)F [TCMDC-132294] | 26.6% | 28.2% | 29.3% | 24.2% |  | -4.3% | -26.4% |  | 1.5% |  |  | 0 | 0 |  |
| Cl.N[C@@H](CCNC1CCN(c2cccc(C(F)(F)F)c2)CC1)Cc1ccc(F)c(F)c1 [TCMDC-132301] | 52.8% | 47.6% | 42.6% | 73.6% |  | 53.1% | 61.1% | 44.2% | 79.6% |  |  | 1 | 2 |  |
| CC(O)C1CCCCN1C(=O)c1ccc(-c2ccc(-c3nc4ccccc4[nH]3)s2)cc1 (centres unmarked) [TCMDC-132330] |  |  |  |  |  |  |  |  |  |  |  |  |  | % inhibition female (individual replicates) R1 [1, 12]: 7.4%; % inhibition female (individual replicates) R3 [1, 12]: -27.3%; % inhibition female (individual replicates) R4 [1, 12]: 14.9%; Average inhibition female (%) [1, 6]: -1.0%; % inhibition male (individual replicates) R1 [2, 12]: 10.5%; % inhibition male (individual replicates) R3 [2, 12]: 7.6%; % inhibition male (individual replicates) R4 [2, 12]: 19.6%; Average inhibition male (%) [2, 6]: 14.0% |
| CN(C)Cc1ccc(-c2ccc(NC(=O)c3ccc4c(=O)n(Cc5ccccc5)cnc4c3)cc2)cc1 [TCMDC-132361] | 36.5% | 37.4% | 28.0% | 35.8% |  | 62.7% | 57.2% |  | 53.6% |  |  | 0 | 3 |  |
| COc1ccc(-c2cccc(CNC3CCN(C)CC3)c2)cc1S(=O)(=O)NCc1ccccc1.O=C(O)C(F)(F)F [TCMDC-132375] | 14.0% | 15.7% | 4.8% | 20.5% | 0 | 31.3% | 25.4% | 11.7% | 56.9% | 1 | 0 |  |  |  |
| Cc1cc(-c2cccc(CNC3CCN(C)CC3)c2)ccc1S(=O)(=O)NCc1ccccc1.O=C(O)C(F)(F)F [TCMDC-132379] | 17.5% | 20.6% | 25.5% | -4.5% | 0 | 43.8% | 43.1% | 25.4% | 55.6% | 2 | 0 |  |  |  |
